Experimental data from US20200270225A1, “Chiral Diacylhydrazine Ligands for Modulating the Expression of Exogenous Genes via an Ecdysone Receptor Complex” (Intrexon Corporation, priority 2007, published 2020).
Like-named read-outs stand apart in the source and are kept apart here.

What was measured:
[1] = molecular target: T1, [V390I/Y410E/E274V]-CfEcR (Choristoneura fumiferana, UniProt O77240); type: cell-based; conditions: 3T3 Cells; for RMFI (relative maximum fold induction): relative to GS-E ligand
T1 construct: assay construct b835
Procedure, shortened: (§1)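 NIH3T3 cells were transiently co-transfected with GAL4-DBD fused to CfEcR DEF domains (wild-type or V390I/Y410E/E274V), VP16-AD fused to chimeric human/Locusta RXR, and a GAL4-response luciferase reporter. Ligand was given at 8 doses, 0.01–33 µM, 0.33% DMSO, luciferase read at 48 h. EC50 came from fold induction over DMSO via three-parameter logistic fit; Relative Max FI was taken versus GS™-E ligand.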

[2] = molecular target: wild-type Choristoneura fumiferana EcR (D, E and F domains) (Choristoneura fumiferana, UniProt O77240); type: cell-based; conditions: WT-CtEcR, 3T3 Cells; for RMFI (relative maximum fold induction): relative to GS-E ligand
Procedure, shortened: as §1

SMILES | melting point | EC50 ([1]; R) | RMFI (relative maximum fold induction) ([1]; R) | EC50 ([2]; R) | RMFI (relative maximum fold induction) ([2]; R) | EC50 ([1]; S) | EC50 ([2]; S)
CCC[C@@H](N(NC(=O)c1cccc(C)c1)C(=O)c1cc(C)cc(C)c1)C(C)(C)C [Example 8, (R)-3,5-Dimethyl-benzoic acid N-(1-tert-butyl-butyl)-N′-(3-methyl-benzoyl)-hydrazide] | 158 to 159 °C | 1.2 nM | 0.92 | ~30 nM | 0.86 |  | 
CCC[C@@H](N(NC(=O)c1cccc(OC)c1)C(=O)c1cc(C)cc(C)c1)C(C)(C)C [Example 9, (R)-3,5-Dimethyl-benzoic acid N-(1-tert-butyl-butyl)-N′-(3-methoxy-benzoyl)-hydrazide] | 110 to 111 °C | 1.4 nM | 0.70 | 101 nM | 0.81 |  | 
CCC[C@@H](N(NC(=O)c1cccc(Cl)c1)C(=O)c1cc(C)cc(C)c1)C(C)(C)C [Example 10, (R)-3,5-Dimethyl-benzoic acid N-(1-tert-butyl-butyl)-N′-(3-chloro-benzoyl)-hydrazide] | 163 to 164 °C | ~3 nM | 0.76 | 94.5 nM | 0.87 |  | 
CCC[C@@H](N(NC(=O)c1ccc(C)cc1)C(=O)c1cc(C)cc(C)c1)C(C)(C)C [Example 11, (R)-3,5-Dimethyl-benzoic acid N-(1-tert-butyl-butyl)-N′-(4-methyl-benzoyl)-hydrazide] | 60 to 62 °C | ~1 nM | 0.90 | ~20 nM | 0.74 |  | 
CCC[C@@H](N(NC(=O)c1ccc(CC)cc1)C(=O)c1cc(C)cc(C)c1)C(C)(C)C [Example 12, (R)-3,5-Dimethyl-benzoic acid N-(1-tert-butyl-butyl)-N′-(4-ethyl-benzoyl)-hydrazide] | 111 to 112 °C | 0.56 nM | 0.82 | 23.6 nM | 0.78 |  | 
CCC[C@@H](N(NC(=O)c1ccc(OC)cc1)C(=O)c1cc(C)cc(C)c1)C(C)(C)C [Example 13, (R)-3,5-Dimethyl-benzoic acid N-(1-tert-butyl-butyl)-N′-(4-methoxy-benzoyl)-hydrazide] | 65 to 67 °C | 1.4 nM | 0.68 | 42.3 nM | 0.73 |  | 
CCC[C@@H](N(NC(=O)c1ccc(Cl)cc1)C(=O)c1cc(C)cc(C)c1)C(C)(C)C [Example 14, (R)-3,5-Dimethyl-benzoic acid N-(1-tert-butyl-butyl)-N′-(4-chloro-benzoyl)-hydrazide] | 87 to 89 °C | 51 nM | 0.74 | 140 nM | 0.74 |  | 
CCC[C@@H](N(NC(=O)c1c(F)cccc1F)C(=O)c1cc(C)cc(C)c1)C(C)(C)C [Example 15, (R)-3,5-Dimethyl-benzoic acid N-(1-tert-butyl-butyl)-N′-(2,6-difluoro-benzoyl)-hydrazide] | 180 to 182 °C | 0.54 nM | 0.79 | 66.2 nM | 0.82 |  | 
CCC[C@@H](N(NC(=O)c1c(Cl)cccc1Cl)C(=O)c1cc(C)cc(C)c1)C(C)(C)C [Example 16] | 185 to 187 °C | 51.2 nM | 0.83 | ~300 nM | 0.53 |  | 
CCC[C@@H](N(NC(=O)c1ccc(OC)c(OC)c1)C(=O)c1cc(C)cc(C)c1)C(C)(C)C [Example 17, (R)-3,5-Dimethyl-benzoic acid N-(1-tert-butyl-butyl)-N′-(3,4-dimethoxy-benzoyl)-hydrazide] | 121 to 123 °C | ~300 nM | 0.53 | ~4000 nM | 0.27 |  | 
CCC[C@@H](N(NC(=O)c1cc(F)cc(F)c1)C(=O)c1cc(C)cc(C)c1)C(C)(C)C [Example 18, (R)-3,5-Dimethyl-benzoic acid N-(1-tert-butyl-butyl)-N′-(3,5-difluoro-benzoyl)-hydrazide] | 192 to 194 °C | ~10 nM | 0.79 | 141 nM | 0.52 |  | 
CCC[C@@H](N(NC(=O)c1ccc2c(c1C)OCCO2)C(=O)c1cc(C)cc(C)c1)C(C)(C)C [Example 21, (R)-3,5-Dimethyl-benzoic acid N-(1-tert-butyl-butyl)-N′-(5-methyl-2,3-dihydro-benzo[1,4]dioxine-6-carbonyl)-hydrazide] | 70 °C | ~0.04 nM | 1.14 | 0.304 nM | 0.87 |  | 
CCC[C@@H](N(NC(=O)c1ccc2c(c1CC)OCCO2)C(=O)c1cc(C)cc(C)c1)C(C)(C)C [Example 22, (R)-3,5-Dimethyl-benzoic acid N-(1-tert-butyl-butyl)-N′-(5-ethyl 2,3-dihydro-benzo[1,4]dioxine-6-carbonyl)-hydrazide] | 128 to 129 °C | 0.064 nM | 0.77 | 0.266 nM | 0.78 |  | 
CCC[C@@H](N(NC(=O)c1cccc2ccccc12)C(=O)c1cc(C)cc(C)c1)C(C)(C)C [Example 23, (R)-3,5-Dimethyl-benzoic acid N-(1-tert-butyl-butyl)-N′-(naphthalene-1-carbonyl)-hydrazide] | 173 to 174 °C | ~10 nM | 0.73 | 111 nM | 0.69 |  | 
CCC[C@@H](N(NC(=O)c1ccc2ccccc2c1)C(=O)c1cc(C)cc(C)c1)C(C)(C)C [Example 24, (R)-3,5-Dimethyl-benzoic acid N-(1-tert-butyl-butyl)-N′-(naphthalene-2-carbonyl)-hydrazide] | 91 °C | ~20 nM | 0.80 | ~200 nM | 0.46 |  | 
CCC[C@@H](N(NC(=O)c1cccc(OC)c1C)C(=O)c1cc(C)cc(C)c1)C(C)(C)C [Example 29, (R)-3,5-Dimethyl-benzoic acid N-(1-tert-butyl-butyl)-N′-(3-methoxy-2-methyl-benzoyl)-hydrazide] | 141 to 143 °C | 0.078 nM | 1.05 | ~1 nM | 1.08 |  | 
C=CC[C@H](N(NC(=O)OCc1ccccc1)C(=O)c1cc(C)cc(C)c1)C(C)(C)C [Example 31.4, (S)—N′-(1-tert-butyl-but-3-enyl)-N′-(3,5-dimethyl-benzoyl)-hydrazine carboxylic acid benzyl ester] | 150 to 151.5 °C |  |  |  |  | > 10000 nM | > 10000 nM
